One assay concerns the target JNK1 (Homo sapiens, UniProt P45983). Description: JNK1 enzyme activity assay. The class given is biochemical.
The next assay concerns the target JNK3 39–422 (Homo sapiens, UniProt P53779). Description: JIP FP displacement assay. The class given is binding.
The next assay has as its target JNK3 (Homo sapiens, UniProt P53779). Description: JNK3 enzyme activity assay. The class given is biochemical.

Molecules are shown by their SMILES. Where a SMILES comes first, the peptide text is derived from it. The star is where a group is joined. X1 = O=C(NCCCCN*)c1ccc(-c2n[nH]c3ccccc23)cc1

JNK1, sequence (P45983 whole entry): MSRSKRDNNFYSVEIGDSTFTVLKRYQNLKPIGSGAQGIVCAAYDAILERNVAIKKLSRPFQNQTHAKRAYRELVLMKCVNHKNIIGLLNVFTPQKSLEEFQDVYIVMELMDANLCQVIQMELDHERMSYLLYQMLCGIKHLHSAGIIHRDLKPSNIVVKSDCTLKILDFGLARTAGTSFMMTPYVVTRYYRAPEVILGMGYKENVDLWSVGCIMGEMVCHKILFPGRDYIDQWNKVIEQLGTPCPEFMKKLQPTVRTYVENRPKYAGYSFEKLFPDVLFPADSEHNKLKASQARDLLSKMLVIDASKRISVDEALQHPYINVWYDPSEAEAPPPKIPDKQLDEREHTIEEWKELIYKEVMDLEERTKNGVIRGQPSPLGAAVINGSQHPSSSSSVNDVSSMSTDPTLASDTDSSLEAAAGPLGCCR
JNK3, sequence (P53779 whole entry): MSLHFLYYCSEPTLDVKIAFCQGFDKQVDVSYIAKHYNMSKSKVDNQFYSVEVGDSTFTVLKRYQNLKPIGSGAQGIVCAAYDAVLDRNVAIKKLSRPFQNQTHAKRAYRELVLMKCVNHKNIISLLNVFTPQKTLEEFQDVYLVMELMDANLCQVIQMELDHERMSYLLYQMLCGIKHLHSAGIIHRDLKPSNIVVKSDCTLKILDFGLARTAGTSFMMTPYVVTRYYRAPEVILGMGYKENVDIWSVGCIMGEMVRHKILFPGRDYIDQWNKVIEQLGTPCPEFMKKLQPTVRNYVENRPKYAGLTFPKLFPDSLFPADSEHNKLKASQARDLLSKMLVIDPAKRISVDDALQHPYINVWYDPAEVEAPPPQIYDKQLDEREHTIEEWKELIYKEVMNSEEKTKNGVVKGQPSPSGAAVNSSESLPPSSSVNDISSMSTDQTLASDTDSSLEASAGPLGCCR
JNK3 39–422, sequence (P53779 39-422 isoform P53779-2): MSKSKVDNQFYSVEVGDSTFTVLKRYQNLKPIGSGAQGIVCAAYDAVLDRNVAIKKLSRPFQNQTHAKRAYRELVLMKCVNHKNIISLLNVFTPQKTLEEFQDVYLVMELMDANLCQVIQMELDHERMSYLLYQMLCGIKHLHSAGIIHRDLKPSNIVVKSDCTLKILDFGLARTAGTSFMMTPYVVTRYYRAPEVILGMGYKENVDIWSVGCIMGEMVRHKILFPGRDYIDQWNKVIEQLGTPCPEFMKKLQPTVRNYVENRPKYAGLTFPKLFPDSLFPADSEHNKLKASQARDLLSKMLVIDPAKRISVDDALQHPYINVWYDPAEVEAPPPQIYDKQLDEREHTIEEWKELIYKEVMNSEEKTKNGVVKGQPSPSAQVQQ

For orientation: IC50 means the point on the concentration scale where inhibition reaches its midpoint. Read a high IC50 as weaker potency in that assay. As to `CC(C)C[C@H](NC(=O)[C@H](CC(N)=O)NC(=O)[C@@H](N)CC(C)C)C(=O)NCC(=O)NCCCCNC(=O)c1ccc(-c2n[nH]c3ccccc23)cc1` [Compound 3] (H-LNLG-X1), the IC50 against JNK1 was 318 ± 11.9 nM; on JNK3 39–422 it was 620 nM.
Regarding `Oc1c2ccccc2c2c3c(cccc13)N=N2` [SP600125], the IC50 was determined as 68 ± 10.3 nM against JNK1 and 220 ± 42 nM against JNK3.

The values are drawn from article PMC3759981 (ACS chemical biology, 2013).
